Measurements: patent publication US20160264593A1 (priority 2013, published 2016)
“And” between values parts separate entries of the source, which are not always exact repeats. Identical values can stand only once. “Also recorded” adds a separate entry of the source. Like-named read-outs stand apart in the source and are kept apart here.

Key:
PP2A [1] = test: PP2A activity in mouse brains after IP dosing (PP2A immunoprecipitation phosphatase assay, malachite green); assay type: in vivo, Balb/c mice; conditions: for Average Conc. (group of 3 mice) / Average Relative Activity (group, vehicle = 100) / Conc. (phosphate, single reading, per mouse) / Mean Conc. (per mouse) / Mean Conc. less IgG blank (per mouse) / Relative Conc. (per mouse, to vehicle) / Relative PP2A Activity (per mouse, vehicle = 100): brain; for PP2A activity in brains as compared with vehicle: high doses IP
Protocol: (§1) Coomassie (Bradford) Protein Assay Kit (Pierce); PP2A Immunoprecipitation Phosphatase Assay Kit (Millipore); Lysate preparation for low endogenous phosphate: 20 mM imidazole-HCl, 2 mM EDTA, 2 mM EGTA, 1 mM PMSF, 1 mM benzamidine, 10 ug/ml each of aprotinin, leupeptin, antipain, soybean trypsin inhibitor; Normal Mouse IgG (Millipore); Okadaic acid (OA) (Tocris); DMSO (Sigma).
(§2) • Species: Mus Musculus • Strain: Balb/c mice • Age: 6-8 weeks • Sex: female • Body weight: 18-22 g • Vendor: Shanghai Laboratory Animal Center, Shanghai, China; • Number of animals: 66 Balb/c mice plus spare
(§3) The mice were kept in laminar flow rooms at constant temperature and humidity with 4 animals in each cage. • Temperature: 20-25 • Humidity: 40-70%. • Light cycle: 12 hours light and 12 hours dark. • Cages: Made of polycarbonate. The size is 29 cm×17.5 cm×12 cm (L×w×H). The bedding material is wood debris, which is changed once per week. • Diet: Animals had free access to irradiation sterilized dry granule food during the entire study period. • Water: Animals had free access to sterile drinking water. • Cage identification: the identification labels for each cage contained the following information: number of animals, sex, strain, date arrival, treatment, study number, group number, and the starting date of the treatment. • Animal identification: Animals were marked by ear punch.
(§4) All the procedures related to animal handling, care, and the treatment in this study were performed according to guidelines approved by the Institutional Animal Care and Use Committee (IACUC) of WuXi AppTec (Shanghai), following the guidance of the Association for Assessment and Accreditation of Laboratory Animal Care (AAALAC). At the time of routine monitoring, the animals were checked and recorded for any effects of tumor growth on normal behavior such as mobility, food and water consumption (by looking only), body weight gain/loss, eye/hair matting and any other abnormal effect.
(§5) 1. Proper amount of the compounds were weighed. 2. The compounds were dissolved in 4% sterile sodium bicarbonate. 3. All of the compounds should be well dissolved and clear. 4. The compounds should be kept cold once in solution and injected within an hour. 5. The mice were administered intraperitoneally according to their body weights, 20 g mouse was treated with 0.2 ml compound solution. 6. Mice were treated with vehicle and compounds according to Table 1. 7. 3 hours after the dose, 3 mice from each group were euthanized by
(§6) CO2 exposure, and the brains and left lobe of livers were taken and snap-frozen in liquid nitrogen immediately. 6 hours after the dose, the other 3 mice from each group were euthanized by CO2 exposure, and the brains and left lobe of livers were taken and snap-frozen in liquid nitrogen immediately.
(§7) Preparation of malachite green phosphate detection solution Added […] of Solution B to each 1 mL of Solution A, kept at room temperature during use. […] of mixed solution AB is used per assay well.
(§8) Diluted 125 mL Phosphate Standard (Solution C) with 1125 mL of distilled water to make 0.1 mM working solution. The solution was used to prepare a phosphate standard curve as described in the table below.
(§9) 1. 25 μL of each phosphate standards was transferred to wells of microliter plate. 2. Added 100 μL of Malachite Green Solution AB. Mixed carefully without creating bubbles. 3. Cultured for 15 minutes at RT. 4. Measured absorbance at a wavelength between 650 nm in a microliter plate reader.
(§10) 1. Dissolved 1 mg Threonine Phosphopeptide (Catalog #12-219) in 1.10 mL of distilled water to prepare a 1 mM solution. 2. Aliquot peptide solution and stored at ˜20° C. as necessary.
(§11) 1. Mouse brain or liver was homogenized using lysis buffer (25 g/L), centrifuged at 12000 g for 10 minutes at […], and the supernatants were collected. 2. The protein was quantitated, and 240 μg of mouse brain or liver lysate was taken to assay phosphatase activity. 3. […]

lung cancer (A549) cells = test: WST cell viability assay, A549; assay type: cell-based; conditions: Homo sapiens, A549, read-out: IC50 A549
PP2A [2] = test: PP2A activity in mouse livers after IP dosing (PP2A immunoprecipitation phosphatase assay, malachite green); assay type: in vivo, Balb/c mice; conditions: for Average Conc. (group of 3 mice) / Average Relative Activity (group, vehicle = 100) / Conc. (phosphate, single reading, per mouse) / Mean Conc. (per mouse) / Mean Conc. less IgG blank (per mouse) / Relative Conc. (per mouse, to vehicle) / Relative PP2A Activity (per mouse, vehicle = 100): liver
Protocol: as §1, §2, §3, §4, §5, §6, §7, §8, §9, §10, §11

[3] = system: breast cancer (2LMP) cells; test: WST cell viability assay, 2LMP
From the text: IC50 values were obtained for cytotoxicity against breast cancer (2LMP), glioblastoma (U-87) and lung cancer (A549) cells (See Table 5 and FIGS. 3-5).

[4] = system: glioblastoma (U-87) cells; test: WST cell viability assay, U-87 MG; assay type: cell-based; conditions: Homo sapiens, U-87 MG
[5] = IP, dose and time not specified
[6] = high dose IP (mpk: 100 1.5, 113 2.2, 151 1.6, 153 1.7, 157 2.0), 3 h
[7] = high dose IP (mpk: 100 1.5, 113 2.2, 151 1.6, 153 1.7, 157 2.0), 6 h
[8] = low dose IP (mpk: 100 0.75, 113 1.1, 151 0.8, 153 0.85, 157 1.0), 3 h
[9] = low dose IP (mpk: 100 0.75, 113 1.1, 151 0.8, 153 0.85, 157 1.0), 6 h
[10] = high dose IP (mpk: 100 1.5, 113 2.2, 151 1.6, 157 2.0), 3 h
[11] = high dose IP (mpk: 100 1.5, 113 2.2, 151 1.6, 157 2.0), 6 h

## CCCCCCCOC(=O)C1C2CCC(O2)C1C(=O)N1CCN(C)CC1 (centres unmarked) [Compound 157, 3-(4-Methylpiperazine-1-carbonyl)-7-oxa-bicyclo[2,2,1]heptane-2-carboxylic acid heptyl ester]
PP2A [1]; [5]
  PP2A activity in the brain of mice (statement): inhibited PP2A activity
PP2A [1]; [6]
  Average Conc. (group of 3 mice): 1343.13
  Average Relative Activity (group, vehicle = 100): 54.50
  Conc. (phosphate, single reading, per mouse): 1589.30 and 1726.49 and 1634.83 and 1576.29 and 896.81 and 863.27
  Mean Conc. (per mouse): 1657.89 and 1605.56 and 880.04
  Mean Conc. less IgG blank (per mouse): 1619.87 and 1567.53 and 842.01
  Relative Conc. (per mouse, to vehicle): 0.75 and 0.72 and 0.39
  Relative PP2A Activity (per mouse, vehicle = 100): 65.72 and 63.60 and 34.16
PP2A [1]; [7]
  Average Conc. (group of 3 mice): 1748.29
  Average Relative Activity (group, vehicle = 100): 62.95
  Conc. (phosphate, single reading, per mouse): 1929.55 and 2102.31 and 1375.88 and 1308.40 and 1958.00 and 2043.77
  Mean Conc. (per mouse): 2015.93 and 1342.14 and 2000.89
  Mean Conc. less IgG blank (per mouse): 1977.90 and 1304.11 and 1962.86
  Relative Conc. (per mouse, to vehicle): 0.81 and 0.53 and 0.80
  Relative PP2A Activity (per mouse, vehicle = 100): 71.22 and 46.96 and 70.67
PP2A [1]; high dose IP, 3 h
  activity of PP2A in brains (statement): most potent; also recorded: significantly inhibited; also recorded: more effectively than compound 100
PP2A [1]; high dose IP, 6 h
  activity of PP2A in brains (statement): most potent; also recorded: significantly inhibited; also recorded: more effectively than compound 100
PP2A [1]; 3 h post treatment
  PP2A activity in brains as compared with vehicle: 51%
PP2A [1]; 6 h post treatment
  PP2A activity in brains as compared with vehicle: 63%
PP2A [1]; [8]
  Average Conc. (group of 3 mice): 1523.35
  Average Relative Activity (group, vehicle = 100): 61.81
  Conc. (phosphate, single reading, per mouse): 1696.01 and 1732.18 and 1420.80 and 1346.00 and 1604.74 and 1568.56
  Mean Conc. (per mouse): 1714.09 and 1383.40 and 1586.65
  Mean Conc. less IgG blank (per mouse): 1676.07 and 1345.37 and 1548.63
  Relative Conc. (per mouse, to vehicle): 0.77 and 0.62 and 0.71
  Relative PP2A Activity (per mouse, vehicle = 100): 68.00 and 54.59 and 62.83
PP2A [1]; [9]
  Average Conc. (group of 3 mice): 1413.26
  Average Relative Activity (group, vehicle = 100): 50.88
  Conc. (phosphate, single reading, per mouse): 1975.68 and 1782.39 and 1408.40 and 1380.55 and 1075.87 and 1084.82
  Mean Conc. (per mouse): 1879.04 and 1394.48 and 1080.34
  Mean Conc. less IgG blank (per mouse): 1841.01 and 1356.45 and 1042.32
  Relative Conc. (per mouse, to vehicle): 0.75 and 0.55 and 0.43
  Relative PP2A Activity (per mouse, vehicle = 100): 66.29 and 48.84 and 37.53
PP2A [1]; low dose IP, 6 h
  activity of PP2A in brains (statement): most potent
Lung cancer (A549) cells
  IC50: > 100 µM
PP2A [2]; [5]
  PP2A activity in the liver of mice (statement): inhibited PP2A activity
PP2A [2]; [10]
  Average Conc. (group of 3 mice): 234.28
  Average Relative Activity (group, vehicle = 100): 55.78
  Conc. (phosphate, single reading, per mouse): 344.85 and 360.53 and 257.33 and 287.81 and 202.46 and 225.54
  Mean Conc. (per mouse): 352.69 and 272.57 and 214
  Mean Conc. less IgG blank (per mouse): 307.22 and 227.09 and 168.52
  Relative Conc. (per mouse, to vehicle): 0.73 and 0.54 and 0.4
  Relative PP2A Activity (per mouse, vehicle = 100): 73.15 and 54.07 and 40.13
PP2A [2]; [11]
  Average Conc. (group of 3 mice): 232.03
  Average Relative Activity (group, vehicle = 100): 52.2
  Conc. (phosphate, single reading, per mouse): 266.91 and 213.78 and 382.3 and 411.92 and 190.7 and 199.41
  Mean Conc. (per mouse): 240.34 and 397.11 and 195.06
  Mean Conc. less IgG blank (per mouse): 194.87 and 351.63 and 149.58
  Relative Conc. (per mouse, to vehicle): 0.44 and 0.79 and 0.34
  Relative PP2A Activity (per mouse, vehicle = 100): 43.84 and 79.11 and 33.65
PP2A [2]; high dose IP, 6 h post treatment
  activity of PP2A in livers as compared with vehicle (statement): significantly inhibited
PP2A [2]; [8]
  Average Conc. (group of 3 mice): 328.84
  Average Relative Activity (group, vehicle = 100): 78.3
PP2A [2]; [9]
  Average Conc. (group of 3 mice): 359.62
  Average Relative Activity (group, vehicle = 100): 80.9
[3]; read-out: IC50 2LMP, WST-20131015 (first value of the cell)
  IC50: 92.2 µM
[3]; read-out: IC50 2LMP, WST-20131025 (second value of the cell)
  IC50: 96.4 µM
[4]; read-out: IC50 U-87 MG, WST-20131017 (first value of the cell)
  IC50: > 100 µM
[4]; read-out: IC50 U-87 MG, WST-20131024 (second value of the cell)
  IC50: > 100 µM
